Like-named read-outs stand apart in the source and are kept apart here.
Tests used:
Type in all cases: cell-based
HBsAg = assay: PHH HBV natural infection assay, HBsAg (alphalisa)
Experimental: (§1) Detailed procedures regarding primary human hepatocyte (PHH) HBV natural infection assay are described as below. One tube of frozen PHH (10 million cells) is thawed in 37° C. water bath and then transferred to 20 mL of PHH thawing medium (Sigma, InVitroGRO HT Medium, Cat. S03319) with gently mixing. The cells were then centrifuged at […] for 5 min, the supernatant was discarded and the tube was refilled with 25 mL of PHH plating medium (Sigma, InVitroGRO CP Medium, Cat. S03317). The tube was shaken very gently to re-suspend all cells, and then 50 µl of cells were transferred to each well 384-well collagen I coated plate with appropriate liquid handling equipment, e.g. Integra VIAFLO384 or Agilent Bravo. The cells were then cultured for 24 hours in a cell incubator. For HBV infection, after PHH attachment on the culture plate, the plating medium was removed and replenished with PHH culture medium containing HBV virus. The PHH culture medium was prepared with Dulbecco’s Modified Eagle Medium (DMEM)/F12 (1: 1 in volume ratio) containing 10% fetal bovine serum (Gibco, Cat. 10099141), 5 ng/mL human epidermal growth factor (Gibco, Cat.PHG0311L), 20 ng/mL dexamethasone (Sigma, Cat.D4902-100mg), 250 ng/mL human recombinant insulin (Gibco, Cat.41400045) and 100 U/mL penicillin. HBV virus at 200 genome equivalent (GE) per cell with 4% PEG8000 (Sigma, Cat.P1458) containing culture medium were added to the PHH culture medium for infection. The cells were then cultured for 24 hours in cell incubator. Then the cell culture supernatant was removed. The HBV-infected PHH were cultured with sandwich culture method with PHH culture medium containing 1% DMSO and 0.25 mg/mL matrix gel for 72 hours. The supernatant was then refreshed with PHH culture medium containing different concentrations of testing compounds for two times with 72-hour interval. At the end of treatment, the supernatant was collected for viral markers measurements, including HBsAg, HBeAg, HBV DNA and cytotoxicity. HBsAg and HBeAg were detected using alphalisa method using their specific antibodies. For HBV DNA detection, HBV DNA Quantitative Fluorescence Diagnostic Kit (Sansure Biotech Inc.) was used following the manufacture’s protocol. Cytotoxicity was determined using Cell Counting Kit-8 (CCK8, Dojindo Molecular Technologies, Inc.).
(§2) The compounds of the present invention were tested for their capacity to inhibit HBsAg and HBeAg as described herein.

HBeAg = assay: PHH HBV natural infection assay, HBeAg (alphalisa)
Experimental: as §1, §2

[1] = Cytotoxicity in PHH natural infection assay (Cell Counting Kit-8); conditions: human; HBV-infected PHH, CCK8, compound refreshed two times with 72-hour interval
Experimental: as §1

[2] = read-out: HBsAg IC50, HBV-infected PHH, culture supernatant, compound refreshed two times with 72-hour interval, alphalisa
[3] = read-out: HBeAg IC50, HBV-infected PHH, culture supernatant, compound refreshed two times with 72-hour interval, alphalisa
[4] = Hepatitis B virus, 72 h, read-out: HBsAg IC50, HBV-infected PHH, culture supernatant, compound refreshed two times with 72-hour interval, alphalisa
[5] = Hepatitis B virus, 72 h, read-out: HBeAg IC50, HBV-infected PHH, culture supernatant, compound refreshed two times with 72-hour interval, alphalisa

Row | Structure (SMILES) | IC50 (HBsAg; [2]) | IC50 (HBeAg; [3]) | CC50 at 144 h [1] | IC50 (HBsAg; [4]) | IC50 (HBeAg; [5])
1 | [H][C@]1(NC(=O)c2ccnc(C(N)=O)c2)C[C@@]2(C1)C[C@]([H])(c1nc3cc(Cl)ccc3s1)C2 (single isomer, unassigned) [Example 53-a, (Sa)-N4-[6-(5-chloro-1,3-benzothiazol-2-yl)spiro[3.3]heptan-2-yl]pyridine-2,4-dicarboxamide] | 0.29 µM | 0.24 µM | 36.8 µM | – | –
2 | [H][C@]1(NC(=O)c2ccnc(C(N)=O)c2)C[C@]2(C1)C[C@]([H])(c1nc3cc(Cl)ccc3s1)C2 (single isomer, unassigned) [Example 53-b, (Ra)-N4-[6-(5-chloro-1,3-benzothiazol-2-yl)spiro[3.3]heptan-2-yl]pyridine-2,4-dicarboxamide] | 5.96 µM | 5.25 µM | > 10 µM | – | –
3 | [H][C@]1(NC(=O)c2ccnc(S(C)(=O)=O)c2)C[C@@]2(C1)C[C@]([H])(c1nc3cc(Cl)ccc3s1)C2 (single isomer, unassigned) [Example 54-a, (Sa)-N-[6-(5-chloro-1,3-benzothiazol-2-yl)spiro[3.3]heptan-2-yl]-2-methylsulfonyl-pyridine-4-carboxamide] | 2.46 µM | 1.79 µM | > 10 µM | – | –
4 | [H][C@]1(NC(=O)c2ccnc(S(C)(=O)=O)c2)C[C@]2(C1)C[C@]([H])(c1nc3cc(Cl)ccc3s1)C2 (single isomer, unassigned) [Example 54-b, (Ra)-N-[6-(5-chloro-1,3-benzothiazol-2-yl)spiro[3.3]heptan-2-yl]-2-methylsulfonyl-pyridine-4-carboxamide] | 0.28 µM | 0.23 µM | 15.3 µM | – | –
5 | [H][C@]1(NC(=O)c2ccnc(S(=O)(=O)C3CC3)c2)C[C@@]2(C1)C[C@]([H])(c1nc3cc(Cl)ccc3s1)C2 (single isomer, unassigned) [Example 55-a, (Sa)-N-[6-(5-chloro-1,3-benzothiazol-2-yl)spiro[3.3]heptan-2-yl]-2-cyclopropylsulfonyl-pyridine-4-carboxamide] | 1.56 µM | 1.09 µM | 22.5 µM | – | –
6 | [H][C@]1(NC(=O)c2ccnc(S(=O)(=O)C3CC3)c2)C[C@]2(C1)C[C@]([H])(c1nc3cc(Cl)ccc3s1)C2 (single isomer, unassigned) [Example 55-b, (Ra)-N-[6-(5-chloro-1,3-benzothiazol-2-yl)spiro[3.3]heptan-2-yl]-2-cyclopropylsulfonyl-pyridine-4-carboxamide] | 0.54 µM | 0.4 µM | 11.6 µM | – | –
7 | [H][C@]1(NC(=O)c2cc(C(N)=O)ncn2)C[C@@]2(C1)C[C@]([H])(c1nc3cc(Cl)ccc3s1)C2 (single isomer, unassigned) [Example 56-a, (Sa)-N6-[6-(5-chloro-1,3-benzothiazol-2-yl)spiro[3.3]heptan-2-yl]pyrimidine-4,6-dicarboxamide] | – | – | > 10 µM | 3.29 µM | 2.47 µM
8 | [H][C@]1(NC(=O)c2cc(C(N)=O)ncn2)C[C@]2(C1)C[C@]([H])(c1nc3cc(Cl)ccc3s1)C2 (single isomer, unassigned) [Example 56-b, (Ra)-N6-[6-(5-chloro-1,3-benzothiazol-2-yl)spiro[3.3]heptan-2-yl]pyrimidine-4,6-dicarboxamide] | 3.3 µM | 2.27 µM | > 10 µM | – | –
9 | O=C(NC1CC2(C1)CC(c1nc3cc(Cl)ccc3s1)C2)c1cccc(C(F)(F)F)c1 (stereo not drawn) [Example 1, N-[6-(5-chloro-1,3-benzothiazol-2-yl)spiro[3.3]heptan-2-yl]-3-(trifluoromethyl)benzamide] | – | – | > 10 µM | 6.55 µM | 4.53 µM
10 | NS(=O)(=O)c1cccc(C(=O)NC2CC3(C2)CC(c2nc4cc(Cl)ccc4s2)C3)c1 (stereo not drawn) [Example 2, N-[6-(5-chloro-1,3-benzothiazol-2-yl)spiro[3.3]heptan-2-yl]-3-sulfamoyl-benzamide] | – | – | > 10 µM | 3.71 µM | 3.33 µM
11 | CP(C)(=O)c1cccc(C(=O)NC2CC3(C2)CC(c2nc4cc(Cl)ccc4s2)C3)c1 (stereo not drawn) [Example 3, N-[6-(5-chloro-1,3-benzothiazol-2-yl)spiro[3.3]heptan-2-yl]-3-dimethylphosphoryl-benzamide] | – | – | > 10 µM | 6.37 µM | 4.39 µM
12 | O=C(NC1CC2(C1)CC(c1nc3cc(Cl)ccc3s1)C2)c1ccnc(C(F)(F)F)c1 (stereo not drawn) [Example 4, N-[6-(5-chloro-1,3-benzothiazol-2-yl)spiro[3.3]heptan-2-yl]-2-(trifluoromethyl)pyridine-4-carboxamide] | – | – | > 10 µM | 5.05 µM | 4.34 µM
13 | N#Cc1cc(C(=O)NC2CC3(C2)CC(c2nc4cc(Cl)ccc4s2)C3)ccn1 (stereo not drawn) [Example 5, N-[6-(5-chloro-1,3-benzothiazol-2-yl)spiro[3.3]heptan-2-yl]-2-cyano-pyridine-4-carboxamide] | – | – | > 10 µM | 3.47 µM | 2.92 µM
14 | Cc1cc(C(=O)NC2CC3(C2)CC(c2nc4cc(Cl)ccc4s2)C3)ccn1 (stereo not drawn) [Example 6, N-[6-(5-chloro-1,3-benzothiazol-2-yl)spiro[3.3]heptan-2-yl]-2-methyl-pyridine-4-carboxamide] | – | – | > 10 µM | 3.63 µM | 3.3 µM
15 | CS(=O)(=O)Cc1cc(C(=O)NC2CC3(C2)CC(c2nc4cc(Cl)ccc4s2)C3)ccn1 (stereo not drawn) [Example 7, N-[6-(5-chloro-1,3-benzothiazol-2-yl)spiro[3.3]heptan-2-yl]-2-(methylsulfonylmethyl)pyridine-4-carboxamide] | – | – | > 10 µM | 3.33 µM | 3.09 µM
16 | CC(C)(c1cc(C(=O)NC2CC3(C2)CC(c2nc4cc(Cl)ccc4s2)C3)ccn1)S(C)(=O)=O (stereo not drawn) [Example 8, N-[6-(5-chloro-1,3-benzothiazol-2-yl)spiro[3.3]heptan-2-yl]-2-(1-methyl-1-methylsulfonylethyl)pyridine-4-carboxamide] | – | – | 35.9 µM | 1.89 µM | 1.23 µM
17 | CCS(=O)(=O)c1cc(C(=O)NC2CC3(C2)CC(c2nc4cc(Cl)ccc4s2)C3)ccn1 (stereo not drawn) [Example 9, N-[6-(5-chloro-1,3-benzothiazol-2-yl)spiro[3.3]heptan-2-yl]-2-ethylsulfonyl-pyridine-4-carboxamide] | – | – | 13.4 µM | 1.35 µM | 1.21 µM
18 | NC(=O)Nc1cc(C(=O)NC2CC3(C2)CC(c2nc4cc(Cl)ccc4s2)C3)ccn1 (stereo not drawn) [Example 10, N-[6-(5-chloro-1,3-benzothiazol-2-yl)spiro[3.3]heptan-2-yl]-2-ureido-pyridine-4-carboxamide] | – | – | > 50 µM | 7.7 µM | 8.43 µM
19 | NC(=O)c1cc(C(=O)NC2CC3(C2)CC(c2nc4cc(Cl)ccc4s2)C3)ccn1 (stereo not drawn) [Example 11, N4-[6-(5-chloro-1,3-benzothiazol-2-yl)spiro[3.3]heptan-2-yl]pyridine-2,4-dicarboxamide] | – | – | > 50 µM | 4.06 µM | 6.81 µM
20 | NC(=O)c1cc(C(=O)NC2CC3(C2)CC(c2nc4cc5c(cc4s2)OCO5)C3)ccn1 (stereo not drawn) [Example 12, N4-[6-([1,3]dioxolo[4,5-f][1,3]benzothiazol-6-yl)spiro[3.3]heptan-2-yl]pyridine-2,4-dicarboxamide] | – | – | 23.3 µM | 6.58 µM | 6.53 µM
